The source of these data is patent US11111240B2, “Sultam compound and application method thereof” (Chia Tai Tianqing Pharmaceutical Group Co., Ltd., priority 2016, dated 2021).

In the assay the target is IDH1 (R132H) (Homo sapiens (Human), UniProt O75874, R132H). In words: Enzyme assay, IDH1m inhibition (NADPH decrease, diaphorase/resazurin). The settings on record: 40 nM enzyme, 16 h pre-incubation at 23° C. The assay is classed as biochemical. The text has this: Resazurin is a traditional redox dye, and after a redox reaction, it can be reduced from a blue resazurin without fluorescence to a pink fluorescent substance, resorufin, which can be measured and quantified with relative fluorescence unit (RFU) of fluorophotometer (Ex=530-570 nm, Em=590-620 nm). At present, resazurin is widely used for determining the viability of bacteria, cells, etc. and the enzyme activity detection of oxidoreductase. We detected the decrease of cofactor NADPH to determine the inhibitory activity of a compound against IDH1m and detected the generation of cofactor NADPH to determine the inhibitory activity of a compound against IDH WT. The compound was pre-incubated with IDH1m and NADPH, and then the reaction was initiated by adding α-KG and performed for certain time under a linear condition. Then, diaphorase (lipoamide dehydrogenase) and the corresponding substrate resazurin were added thereto for detection. Lipoamide dehydrogenase terminated the IDH1m reaction by decreasing the available cofactor NADPH, which oxidized NADPH to NADP, and reduced resazurin to high fluorescent resorufin. The amount of the remaining cofactor NADPH after a specific reaction time was quantified via an easily detectable fluorophore.
Chain of IDH1 (R132H) (O75874 whole entry R132H): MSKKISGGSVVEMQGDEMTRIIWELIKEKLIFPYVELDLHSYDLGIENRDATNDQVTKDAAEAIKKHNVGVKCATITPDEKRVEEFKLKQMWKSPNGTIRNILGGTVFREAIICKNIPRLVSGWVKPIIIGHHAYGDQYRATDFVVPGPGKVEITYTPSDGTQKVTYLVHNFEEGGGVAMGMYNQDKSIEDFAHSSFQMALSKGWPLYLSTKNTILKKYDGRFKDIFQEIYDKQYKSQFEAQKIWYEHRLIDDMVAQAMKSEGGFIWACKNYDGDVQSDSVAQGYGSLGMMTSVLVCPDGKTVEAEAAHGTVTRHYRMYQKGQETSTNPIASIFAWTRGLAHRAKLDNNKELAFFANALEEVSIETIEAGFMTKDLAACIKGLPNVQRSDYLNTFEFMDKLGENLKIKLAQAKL
The specific operation was as follows: 2.5 μl of the compound diluted in a 3-fold gradient was added to a 384-well plate, followed by adding 5 μl of the reaction buffer (20 mM Tris-HCl, pH 7.5; 150 mM NaCl; 10 mM MgCl2; 0.4 mg/mL BSA (Bovine Serum Albumin) and 2 mM DTT (dithiothreitol)) containing 40 nM IDH1 (R132H/R132C) and 20 μM NADPH. Then, the above test mixture was incubated at 23° C. for 16 hours, and then 2.5 μl of the reaction buffer containing 4 mM α-KG was added to initiate the reaction. After they were incubated for 60 minutes at room temperature, 5 μl of the termination mixture (0.4 U/ml diaphorase and 20 μM resazurin) formulated with the reaction buffer was added to convert resazurin to resorufin, so as to measure the amount of the remaining NADPH. After incubating at 23° C. for 10 minutes, fluorescence values were determined through Flexstation 3 at Ex535/Em595. The enzyme activity of each compound was respectively determined at 12 concentrations, and the data were calculated using the software GraFit6.0 (Erithacus Software) to obtain the IC50 value of each compound.
`N#Cc1ccnc(N2[C@H](C(=O)N(c3cncc(F)c3)[C@@H](C(=O)NC3CC(F)(F)C3)c3ccccc3Cl)CCS2(=O)=O)c1` [Example 1, (S)—N—((R)-1-(2-chlorophenyl)-2-((3,3-difluorocyclobutyl)amino)-2-oxoethyl)-2-(4-cyanopyridin-2-yl)-N-(5-fluoropyridin-3-yl)-isothiazolidine-3-carboxamide 1,1-dioxide]: the IC50 (commonly the concentration that inhibits the measured activity by half) was less than 10000 nM. For `N#Cc1ccnc(N2[C@H](C(=O)N(c3cc(F)cc(F)c3)[C@@H](C(=O)NC3CC(F)(F)C3)c3ccccc3Cl)CCS2(=O)=O)c1` [Example 3, (S)—N—((R)-1-(2-chlorophenyl)-2-((3,3-difluorocyclobutyl)amino)-2-oxoethyl)-2-(4-cyanopyridin-2-yl)-N-(3,5-difluorophenyl)-isothiazolidine-3-carboxamide 1,1-dioxide], the IC50 was less than 500 nM. The molecule `N#Cc1ccnc(N2[C@H](C(=O)N(c3cc(F)cc(F)c3)[C@H](C(=O)NC3CC(F)(F)C3)c3ccccc3Cl)CCS2(=O)=O)c1` [Example 4, (S)—N—((S)-1-(2-chlorophenyl)-2-((3,3-difluorocyclobutyl)amino)-2-oxoethyl)-2-(4-cyanopyridin-2-yl)-N-(3,5-difluorophenyl)-isothiazolidine-3-carboxamide 1,1-dioxide] returned an IC50 of less than 20 nM.

On to `N#Cc1ccnc(N2[C@H](C(=O)N(c3cccc(C(F)(F)F)c3)[C@@H](C(=O)NC3CC(F)(F)C3)c3ccccc3Cl)CCS2(=O)=O)c1` [Example 5, (S)—N—((R)-1-(2-chlorophenyl)-2-((3,3-difluorocyclobutyl)amino)-2-oxoethyl)-2-(4-cyanopyridin-2-yl)-N-(3-trifluoromethylphenyl)-isothiazolidine-3-carboxamide 1,1-dioxide], for which the IC50 is less than 1000 nM.

As to `N#Cc1ccnc(N2[C@H](C(=O)N(c3cccc(C(F)(F)F)c3)[C@H](C(=O)NC3CC(F)(F)C3)c3ccccc3Cl)CCS2(=O)=O)c1` [Example 6, (S)—N—((S)-1-(2-chlorophenyl)-2-((3,3-difluorocyclobutyl)amino)-2-oxoethyl)-2-(4-cyanopyridin-2-yl)-N-(3-trifluoromethylphenyl)-isothiazolidine-3-carboxamide 1,1-dioxide], the IC50 is less than 20 nM. `N#Cc1cc(F)cc(N(C(=O)[C@@H]2CCS(=O)(=O)N2c2cc(C#N)ccn2)[C@@H](C(=O)NC2CC(F)(F)C2)c2ccccc2Cl)c1` [Example 7, (S)—N—((R)-1-(2-chlorophenyl)-2-((3,3-difluorocyclobutyl)amino)-2-oxoethyl)-2-(4-cyanopyridin-2-yl)-N-(3-cyano-5-fluorophenyl)-isothiazolidine-3-carboxamide 1,1-dioxide] displayed an IC50 of less than 500 nM.

`N#Cc1cc(F)cc(N(C(=O)[C@@H]2CCS(=O)(=O)N2c2cc(C#N)ccn2)[C@H](C(=O)NC2CC(F)(F)C2)c2ccccc2Cl)c1` [Example 8, (S)—N—((S)-1-(2-chlorophenyl)-2-((3,3-difluorocyclobutyl)amino)-2-oxoethyl)-2-(4-cyanopyridin-2-yl)-N-(3-cyano-5-fluorophenyl)-isothiazolidine-3-carboxamide 1,1-dioxide] displayed a half-inhibitory concentration (IC50) of less than 20 nM. Molecule `N#Cc1ccnc(N2[C@H](C(=O)N(c3ccc(F)c(F)c3)[C@@H](C(=O)NC3CC(F)(F)C3)c3ccccc3Cl)CCS2(=O)=O)c1` [Example 9, (S)—N—((R)-1-(2-chlorophenyl)-2-((3,3-difluorocyclobutyl)amino)-2-oxoethyl)-2-(4-cyanopyridin-2-yl)-N-(3,4-difluorophenyl)-isothiazolidine-3-carboxamide 1,1-dioxide] gave a 50% inhibitory concentration (IC50) of less than 1000 nM. In the case of `N#Cc1ccnc(N2[C@H](C(=O)N(c3ccc(F)c(F)c3)[C@H](C(=O)NC3CC(F)(F)C3)c3ccccc3Cl)CCS2(=O)=O)c1` [Example 10, (S)—N—((S)-1-(2-chlorophenyl)-2-((3,3-difluorocyclobutyl)amino)-2-oxoethyl)-2-(4-cyanopyridin-2-yl)-N-(3,4-difluorophenyl)-isothiazolidine-3-carboxamide 1,1-dioxide], the IC50 is less than 20 nM. Consider `N#Cc1ccnc(N2[C@H](C(=O)N(c3cccc(F)c3)[C@@H](C(=O)NC3CC(F)(F)C3)c3ccccc3Cl)CCS2(=O)=O)c1` [Example 11, (S)—N—((R)-1-(2-chlorophenyl)-2-((3,3-difluorocyclobutyl)amino)-2-oxoethyl)-2-(4-cyanopyridin-2-yl)-N-(3-fluorophenyl)-isothiazolidine-3-carboxamide 1,1-dioxide], for which the half-inhibitory concentration (IC50) is less than 500 nM. With `O=C(NC1CCCCC1)[C@@H](c1ccccc1Cl)N(C(=O)[C@@H]1CCS(=O)(=O)N1c1ncccn1)c1cccc(F)c1` [Example 13, (S)—N—((R)-1-(2-chlorophenyl)-2-(cyclohexylamino)-2-oxoethyl)-2-(pyrimidin-2-yl)-N-(3-fluorophenyl)-isothiazolidine-3-carboxamide 1,1-dioxide], the IC50 is less than 1000 nM.

For the molecule `O=C(NC1CCCCC1)[C@H](c1ccccc1Cl)N(C(=O)[C@@H]1CCS(=O)(=O)N1c1ncccn1)c1cccc(F)c1` [Example 14, (S)—N—((S)-1-(2-chlorophenyl)-2-(cyclohexylamino)-2-oxoethyl)-2-(pyrimidin-2-yl)-N-(3-fluorophenyl)-isothiazolidine-3-carboxamide 1,1-dioxide], the concentration for half-maximal inhibition (IC50) is less than 20 nM. Molecule `N#Cc1ccnc(N2[C@H](C(=O)N(c3cccc(F)c3)[C@@H](C(=O)NC3CCCCC3)c3ccccc3Cl)CCS2(=O)=O)c1` [Example 15, (S)—N—((R)-1-(2-chlorophenyl)-2-(cyclohexylamino)-2-oxoethyl)-2-(4-cyanopyridin-2-yl)-N-(3-fluorophenyl)-isothiazolidine-3-carboxamide 1,1-dioxide] came in with a 50% inhibitory concentration (IC50) of less than 500 nM. The same measure for `N#Cc1ccnc(N2[C@H](C(=O)N(c3cccc(F)c3)[C@H](C(=O)NC3CCCCC3)c3ccccc3Cl)CCS2(=O)=O)c1` [Example 16, (S)—N—((S)-1-(2-chlorophenyl)-2-(cyclohexylamino)-2-oxoethyl)-2-(4-cyanopyridin-2-yl)-N-(3-fluorophenyl)-isothiazolidine-3-carboxamide 1,1-dioxide]: less than 20 nM; for `O=C(NC1CCCCC1)[C@@H](c1ccccc1Cl)N(C(=O)[C@@H]1CCS(=O)(=O)N1c1cc(F)ccn1)c1cccc(F)c1` [Example 17, (S)—N—((R)-1-(2-chlorophenyl)-2-(cyclohexylamino)-2-oxoethyl)-2-(4-fluoropyridin-2-yl)-N-(3-fluorophenyl)-isothiazolidine-3-carboxamide 1,1-dioxide]: less than 10000 nM. The same measure for `O=C(NC1CCCCC1)[C@H](c1ccccc1Cl)N(C(=O)[C@@H]1CCS(=O)(=O)N1c1cc(F)ccn1)c1cccc(F)c1` [Example 18, (S)—N—((S)-1-(2-chlorophenyl)-2-(cyclohexylamino)-2-oxoethyl)-2-(4-fluoropyridin-2-yl)-N-(3-fluorophenyl)-isothiazolidine-3-carboxamide 1,1-dioxide]: less than 100 nM; for `C#Cc1ccnc(N2[C@H](C(=O)N(c3cccc(F)c3)C(C(=O)NC3CCCCC3)c3ccccc3Cl)CCS2(=O)=O)c1` (stereo partly drawn) [Example 19, (3S)—N-(1-(2-chlorophenyl)-2-(cyclohexylamino)-2-oxoethyl)-N-(3-fluorophenyl)-2-(4-ethynylpyridin-2-yl)isothiazolidine-3-carboxamide 1,1-dioxide]: less than 1000 nM.
